Key:
A9 = assay: Stimulating PI (phosphoinositol) hydrolysis in A9L-m1 cells.; format: functional, Mus musculus
Mus musculus [1] = assay: Minimum effective dose after ip administration, to stimulate salivation in mice; format: functional; details: read-out: MED
Mus musculus [2] = assay: Effect on salivation in mice, after intraperitoneal administration of 10 mg/kg, activity expressed as a score using a scale of 0-2.; format: functional
[3] = biological target: T1, Muscarinic acetylcholine receptor M1 (Rattus norvegicus, UniProt P08482); assay: Binding activity against muscarinic acetylcholine receptor M1 in rat brain, using [3H]OXO-M as the radioligand.; format: tissue-based
T1 sequence (P08482 whole entry): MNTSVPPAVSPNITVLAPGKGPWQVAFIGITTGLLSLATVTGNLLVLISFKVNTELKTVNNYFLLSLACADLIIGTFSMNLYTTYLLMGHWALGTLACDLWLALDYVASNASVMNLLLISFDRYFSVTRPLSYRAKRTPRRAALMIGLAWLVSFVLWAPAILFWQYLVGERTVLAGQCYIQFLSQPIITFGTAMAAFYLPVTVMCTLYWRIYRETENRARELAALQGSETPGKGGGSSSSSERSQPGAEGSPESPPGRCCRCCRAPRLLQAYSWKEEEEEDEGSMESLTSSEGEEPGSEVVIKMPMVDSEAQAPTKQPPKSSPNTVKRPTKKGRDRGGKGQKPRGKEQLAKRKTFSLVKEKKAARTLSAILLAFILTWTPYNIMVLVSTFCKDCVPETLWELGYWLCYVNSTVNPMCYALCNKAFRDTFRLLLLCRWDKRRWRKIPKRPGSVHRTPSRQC

[4] = biological target: T1, Muscarinic acetylcholine receptor M1; assay: Binding activity against muscarinic acetylcholine receptor M1 in rat brain, using [3H]-Pz as the radioligand.; format: tissue-based

**Q.** `c1cnc(C2CN3CCC2CC3)cn1` (stereo not given) was tested. Which Max (A9) did it give?
**A.** 80%

**Q.** And the minimal effective dose (Mus musculus [1])?
**A.** 0.1 mg/kg

**Q.** And the Score (Mus musculus [2])?
**A.** 1.4

**Q.** And the IC50 [3]?
**A.** 4 nM

**Q.** What about the IC50 [4] of the same molecule?
**A.** 74 nM

**Q.** `Clc1cncc(C2CN3CCC2CC3)n1` (stereo not given) was tested. Which Max (A9) did it give?
**A.** 8%

**Q.** And the minimal effective dose (Mus musculus [1])?
**A.** 3 mg/kg

**Q.** And the Score (Mus musculus [2])?
**A.** 1

**Q.** And the IC50 [3]?
**A.** 4.6 nM

**Q.** What about the IC50 [4] of the same molecule?
**A.** 4.7 nM

**Q.** How did the Max (A9) turn out when `Cc1nccnc1C1CN2CCC1CC2` (stereo not given) was run?
**A.** 4%

**Q.** And the minimal effective dose (Mus musculus [1])?
**A.** 3 mg/kg

**Q.** What about the Score (Mus musculus [2]) of the same molecule?
**A.** 2

**Q.** What about the IC50 [3] of the same molecule?
**A.** 23 nM

**Q.** What about the IC50 [4] of the same molecule?
**A.** 80 nM

**Q.** Which results are given for `CCCCCCOc1nccnc1C1=CCCCN(C)C1`?
**A.** Max (A9): 2%; Score (Mus musculus [2]): 0; IC50 [3]: 117 nM; IC50 [4]: 26 nM

**Q.** Which results are given for `CCCCCOc1nccnc1C1CN2CCC1CC2` (stereo not given)?
**A.** Max (A9): 32%; Score (Mus musculus [2]): 0.2; IC50 [3]: 6 nM; IC50 [4]: 7 nM

**Q.** Which results are given for `CCCCSc1nccnc1C1CN2CCC1CC2` (stereo not given)?
**A.** Max (A9): 5%; Score (Mus musculus [2]): 0; IC50 [3]: 0.5 nM; IC50 [4]: 0.4 nM

**Q.** For `CCOc1nccnc1C1CN2CCC1CC2` (stereo not given), which Max (A9) is on record?
**A.** 1%

**Q.** What about the Score (Mus musculus [2]) of the same molecule?
**A.** 0

**Q.** What about the IC50 [3] of the same molecule?
**A.** 23 nM

**Q.** And the IC50 [4]?
**A.** 38 nM

**Q.** Which results are given for `CCCCCCCOc1nccnc1C1CN2CCC1CC2` (stereo not given)?
**A.** Max (A9): 35%; Score (Mus musculus [2]): 0; IC50 [3]: 10 nM; IC50 [4]: 13 nM

**Q.** Which Max (A9) does the source give for `CCCCCCOc1nccnc1C1=CCCCNC1` here?
**A.** 5%

**Q.** And the Score (Mus musculus [2])?
**A.** 0

**Q.** And the IC50 [3]?
**A.** 167 nM

**Q.** What about the IC50 [4] of the same molecule?
**A.** 44 nM

**Q.** With `CCCCCCOc1nccnc1[C@@H]1CN2CCC1C2` (stereo not given in full) as the molecule, how does the Max (A9) read?
**A.** 31%

**Q.** What about the Score (Mus musculus [2]) of the same molecule?
**A.** 0.6

**Q.** And the IC50 [3]?
**A.** 46 nM

**Q.** What about the IC50 [4] of the same molecule?
**A.** 58 nM

**Q.** `COc1nccnc1C1CN2CCC1CC2` (stereo not given) was tested. Which Max (A9) did it give?
**A.** 1%

**Q.** And the Score (Mus musculus [2])?
**A.** 0

**Q.** What about the IC50 [3] of the same molecule?
**A.** 72 nM

**Q.** What about the IC50 [4] of the same molecule?
**A.** 111 nM

**Q.** For `CCCCCCOc1nccnc1[C@@H]1CN2CCCC1C2` (stereo not given in full), which Max (A9) is on record?
**A.** 4%

**Q.** What about the Score (Mus musculus [2]) of the same molecule?
**A.** 0

**Q.** And the IC50 [3]?
**A.** 180 nM

**Q.** And the IC50 [4]?
**A.** 120 nM

**Q.** `CCCCCCOc1nccnc1C1CN2CCC1CC2` (stereo not given) was tested. Which Max (A9) did it give?
**A.** 40%

**Q.** What about the Score (Mus musculus [2]) of the same molecule?
**A.** 0

**Q.** And the IC50 [3]?
**A.** 4.5 nM

**Q.** What about the IC50 [4] of the same molecule?
**A.** 6 nM

**Q.** Which Max (A9) does the source give for `CCCCCCOc1nccnc1C1=CCCN(C)C1` here?
**A.** 12%

**Q.** What about the Score (Mus musculus [2]) of the same molecule?
**A.** 0

**Q.** Which Max (A9) does the source give for `CCCCCCOc1nccnc1[C@H]1CN2CCC1CC2` here?
**A.** 46%

**Q.** And the Score (Mus musculus [2])?
**A.** 0

**Q.** And the IC50 [3]?
**A.** 11.3 nM

**Q.** What about the IC50 [4] of the same molecule?
**A.** 10.6 nM

**Q.** What does the source list for `CCCCCCOc1nccnc1[C@@H]1CN2CCC1CC2`?
**A.** Max (A9): 33%; Score (Mus musculus [2]): 0; IC50 [3]: 2.5 nM; IC50 [4]: 3.7 nM

**Q.** How did the Max (A9) turn out when `CCCCOc1nccnc1C1CN2CCC1CC2` (stereo not given) was run?
**A.** 15%

**Q.** And the Score (Mus musculus [2])?
**A.** 0

**Q.** And the IC50 [3]?
**A.** 5 nM

**Q.** What about the IC50 [4] of the same molecule?
**A.** 10 nM

**Q.** What does the source list for `CCCOc1nccnc1C1CN2CCC1CC2` (stereo not given)?
**A.** Max (A9): 4%; Score (Mus musculus [2]): 0; IC50 [3]: 9 nM; IC50 [4]: 19 nM

**Q.** With `CCCCCCOc1nccnc1[C@H]1CN2CCC1C2` (stereo not given in full) as the molecule, how does the Max (A9) read?
**A.** 40%

**Q.** What about the minimal effective dose (Mus musculus [1]) of the same molecule?
**A.** 1 mg/kg

**Q.** What about the Score (Mus musculus [2]) of the same molecule?
**A.** 1.6

**Q.** And the IC50 [3]?
**A.** 5.6 nM

**Q.** What about the IC50 [4] of the same molecule?
**A.** 7 nM

**Q.** For `Clc1nccnc1C1CN2CCC1CC2` (stereo not given), which Max (A9) is on record?
**A.** 13%

**Q.** And the minimal effective dose (Mus musculus [1])?
**A.** 10 mg/kg

**Q.** What about the Score (Mus musculus [2]) of the same molecule?
**A.** 1.2

**Q.** And the IC50 [3]?
**A.** 56 nM

**Q.** And the IC50 [4]?
**A.** 180 nM

**Q.** Which results are given for `CCCCCSc1nccnc1C1CN2CCC1CC2` (stereo not given)?
**A.** Max (A9): 7%; Score (Mus musculus [2]): 0; IC50 [3]: 0.7 nM; IC50 [4]: 1.1 nM

**Q.** How did the Max (A9) turn out when `CCCCCCSc1nccnc1C1CN2CCC1CC2` (stereo not given) was run?
**A.** 16%

**Q.** What about the Score (Mus musculus [2]) of the same molecule?
**A.** 0

**Q.** What about the IC50 [3] of the same molecule?
**A.** 2 nM

**Q.** What about the IC50 [4] of the same molecule?
**A.** 2.2 nM

**Q.** Which results are given for `CCCCCCOc1nccnc1[C@H]1CN2CCCC1C2` (stereo not given in full)?
**A.** Max (A9): 12%; Score (Mus musculus [2]): 0; IC50 [3]: 4 nM; IC50 [4]: 2.5 nM

**Q.** For `C[N+](C)(C)CC#CCOC(=O)Nc1cccc(Cl)c1.[Cl-]`, which Max (A9) is on record?
**A.** 52%

**Q.** With `COC(=O)C1=CCCN(C)C1` [ARECOLINE] as the molecule, how does the Max (A9) read?
**A.** 73%

**Q.** And the Score (Mus musculus [2])?
**A.** 0

**Q.** For `CCCCCCOc1nsnc1C1=CCCN(C)C1` [XANOMELINE], which Max (A9) is on record?
**A.** 55%

**Q.** And the Score (Mus musculus [2])?
**A.** 0

From ChEMBL document CHEMBL1128691, “Functionally selective M1 muscarinic agonists. 3. Side chains and azacycles contributing to functional muscarinic selectivity among pyrazinylazacycles” (J Med Chem, 1995)
